Patent publication EP0394122A2, “Use of tetracyclines to manufacture a medicament for the treatment and prevention of AIDS” (priority 1989, dated 1990)

How the values were obtained:
[1] = test system: lignée lymphoblastoïde CEM clone 13; assay: Cytotoxicity on non-infected CEM clone 13 cells (MTT viability); type: cell-based, humaines
Protocol: Dans une microplaque de 96 puits on dépose 25 µl/puits d'une solution de produit à tester ou de tampon phosphate isotonique (TPI) dans le cas des contrôles. Les produits sont étudiés à différentes concentrations (souvent 8), à raison de 4 puits par concentration. On ajoute alors 125 µl d'une suspension de cellules CEM dans le milieu RPMI contenant 10 % de sérum de veau foetal, 40 U/ml de pénicilline, 40 µg/ml de streptomycine et 5 µg/ml de polybrène (3500 cellules par puits) et les microplaques sont incubées une heure à 37°C, sous une atmosphère contenant 5 % de gaz carbonique. Pour chaque concentration, l'essai est partagé en 2 parties : une partie sur cellules infectées, pour la détermination de l'activité antivirale et l'autre partie sur cellules non infectées, pour déterminer la cytotoxicité des produits. On infecte alors la première série avec HIV (100 µl par puit d'une suspension de virus LAV-1-BRU contenant 200-300 TCID50) tandis que l'autre série reçoit 100 µl de milieu RPMI tel que défini précédemment. Au bout de 7 jours d'incubation, 175 µl de surnageant sont prélevés et rejetés. La viabilité cellulaire est déterminée selon une modification de la technique décrite par R. Pauwels et coll., J. Virol.
Les puits, contenant encore les cellules (infectées ou non infectées), reçoivent 10 µl d'une solution de MTT (méthylthiazoletétrazolium) à 5 mg/ml dans du tampon phosphate isotonique. Pendant une période d'incubation de 4 heures, le MTT est converti en un sel de formazan (bleu) à l'intérieur des cellules vivantes et proportionnellement à leur nombre, alors que rien n'apparaît dans les puits ne contenant plus que des cellules mortes. On ajoute alors 120 µl d'isopropanol (contenant 0,04 mole/l d'acide chlorhydrique) et les microplaques sont agitées jusqu'à la solubilisation du bleu de formazan. L'absorption à 540 nm est lue avec un lecteur automatique de réactions ELISA en microplaques.
Pour les essais de plus longue durée, on procède comme décrit précédemment jusqu'au jour 7. A ce moment, 100 µl de cellules sont prélevés pour mesurer la proportion de cellules vivantes et le restant est remis en culture avec du milieu frais contenant les produits aux mêmes concentrations. Cette opération est répétée tous les 4 jours.

[2] = test system: virus HIV (souche LAV-BRU); assay: Inhibition of the cytopathogenic effect of HIV in infected human lymphocyte culture (MTT viability); type: cell-based; conditions: 21 days after infection, human lymphocytes
Protocol: (§1) La source des leucocytes humains est un stock congelé en N₂ liquide (100 x 10⁶ cellules/ampoule) de leucocytes obtenus sur cytaphérèse d'individus (donneurs) sains. Au moment de l'essai, les cellules sont décongelées, mises en suspension dans 80 % de sérum de veau foetal (SVF) et 20 % de diméthylsulfoxyde et centrifugées à 1000 rpm (10 minutes). Le culot est mis en suspension dans un milieu RPMI [contenant 10 % Lymphocult (Interleukine 2 en provenance de Biotest Diagnostic), 10 % de SVF, pénicilline et streptomycine, respectivement 40 U/ml et 40 µg/ml], à raison de 1 x 10⁶ cellules/ml. Habituellement, on utilise un flacon de culture cellulaire contenant 40 à 60 ml de cette suspension cellulaire. Les cellules sont incubées 4 jours en présence de phytohémagglutinine PHA (0,1 % DIFCO), à 37°C sous une atmosphère contenant 95 % d'air et 5 % de gaz carbonioue. Les cellules sont alors centrifugées, lavées une fois dans du milieu frais (ci-dessus) et remises en suspension dans le même milieu à 1 x 10⁶ cellules/ml [(RPMI 10 % de SVF, 10 % de Lymphocult-antibiotiques ci-dessus) mais contenant 10 U/ml d'anticorps anti-interferon (IFN α) 5 µg/ml de prolybrène.
(§2) 200 µl de cette suspension cellulaire (200.000 cellules) sont déposés dans des puits d'une microplaque de cultures (à 96 puits). A chaque puits, on ajoute 25 µl du produit à tester [dilué 10 fois dans du tampon phosphate isotonique (TPI)] ou 25 µl du solvant TPI pour le contrôle. L'essai est fait en 2 séries : sur cellules infectées (pour déterminer l'activité antivirale) et sur cellules non infectées pour déterminer l'activité antiproliférative (cytotoxicité). On infecte alors avec 25 µl du virus HIV (souche LAV-BRU), alors que l'autre série reçoit (par puits) 25 µl du milieu (ci-dessus). Les cultures sont incubées 7 jours à 37°C (95 % d'air, 5 % de CO₂). 200 µl de surnageant sont alors prélevés, rejetés ou utilisés pour la détermination de l'activité transcriptase inverse. Les cellules du fond (sous 50 µl) sont alors soit testées pour leur viabilité (test MTT), soit additionnées de 200 µl de milieu frais (ci-dessus). Dans ce dernier cas, l'incubation est prolongée pendant encore 7 jours (test au jour 14). L'opération peut être répétée une semaine après (test au jour 21).

lymphocytes humains = assay: Antiproliferative activity (cytotoxicity) on non-infected human lymphocytes (MTT viability); type: cell-based; conditions: day 21
Protocol: as §1, §2

Compound | Cellules non infectées Densité optique ([1]; 0,01 µg/ml, JOUR 14) | Cellules non infectées Densité optique ([1]; 0,01 µg/ml, JOUR 18) | Cellules non infectées Densité optique ([1]; 0,01 µg/ml, day 7) | Cellules non infectées Densité optique ([1]; 0,04 µg/ml, JOUR 14) | Cellules non infectées Densité optique ([1]; 0,04 µg/ml, JOUR 18) | Cellules non infectées Densité optique ([1]; 0,04 µg/ml, day 7) | Cellules non infectées Densité optique ([1]; 0,12 µg/ml, JOUR 14) | Cellules non infectées Densité optique ([1]; 0,12 µg/ml, JOUR 18) | Cellules non infectées Densité optique ([1]; 0,12 µg/ml, day 7) | Cellules non infectées Densité optique ([1]; 0,37 µg/ml, JOUR 14) | Cellules non infectées Densité optique ([1]; 0,37 µg/ml, JOUR 18) | Cellules non infectées Densité optique ([1]; 0,37 µg/ml, day 7) | Cellules non infectées Densité optique ([1]; 10 µg/ml, JOUR 14) | Cellules non infectées Densité optique ([1]; 10 µg/ml, JOUR 18) | Cellules non infectées Densité optique ([1]; 10 µg/ml, day 7) | Cellules non infectées Densité optique ([1]; 30 µg/ml, day 7) | Cellules non infectées Densité optique ([1]; 1,11 µg/ml, JOUR 14) | Cellules non infectées Densité optique ([1]; 1,11 µg/ml, JOUR 18) | Cellules non infectées Densité optique ([1]; 1,11 µg/ml, day 7) | Cellules non infectées Densité optique ([1]; 3,33 µg/ml, JOUR 14) | other results
CN(C)c1ccc(O)c2c1C[C@H]1C[C@H]3[C@H](N(C)C)C(O)=C(C(N)=O)C(=O)[C@@]3(O)C(O)=C1C2=O [Exemple 5, minocycline] | 1,100 | 1,050 | 1,590 | 1,250 | 1,050 | 1,650 | 1,200 | 1,100 | 1,750 | 1,250 | 1,150 | 1,670 | 0,100 | 0,100 | 0,480 | 0,420 | 1,200 | 1,100 | 1,760 | 0,350 | Cellules non infectées Densité optique ([1]; 3,33 µg/ml, JOUR 18): 0,400; Cellules non infectées Densité optique ([1]; 3,33 µg/ml, day 7): 1,650; Cellules infectées Densité optique ([2]; 0,04 µg/ml): 0,530; Cellules infectées Densité optique ([2]; 0,12 µg/ml): 0,435; Cellules infectées Densité optique ([2]; 0,37 µg/ml): 0,640; Cellules infectées Densité optique ([2]; 10 µg/ml): 0,540; Cellules infectées Densité optique ([2]; 1,11 µg/ml): 0,835; Cellules infectées Densité optique ([2]; 3,33 µg/ml): 0,750; Cellules non infectées Densité optique (lymphocytes humains; 0,04 µg/ml): 0,836; Cellules non infectées Densité optique (lymphocytes humains; 0,12 µg/ml): 0,775; Cellules non infectées Densité optique (lymphocytes humains; 0,37 µg/ml): 0,850; Cellules non infectées Densité optique (lymphocytes humains; 10 µg/ml): 0,833; Cellules non infectées Densité optique (lymphocytes humains; 1,11 µg/ml): 0,980; Cellules non infectées Densité optique (lymphocytes humains; 3,33 µg/ml): 0,900
doxycycline [Exemple 2] | 0,980 | 1,100 | 1,530 | 0,950 | 1,050 | 1,34 | 1,020 | 1,020 | 1,53 | 1,000 | 1,000 | 1,60 | 0,100 | 0,100 | 0,740 | 0,2 | 0,960 | 1,020 | 1,50 | 0,950 | Cellules non infectées Densité optique ([1]; 3,33 µg/ml, JOUR 18): 0,950; Cellules non infectées Densité optique ([1]; 3,33 µg/ml, day 7): 1,50; Cellules infectées Densité optique ([2]; 0,04 µg/ml): 0,530; Cellules infectées Densité optique ([2]; 0,12 µg/ml): 0,590; Cellules infectées Densité optique ([2]; 0,37 µg/ml): 0,550; Cellules infectées Densité optique ([2]; 10 µg/ml): 0,125; Cellules infectées Densité optique ([2]; 1,11 µg/ml): 0,773; Cellules non infectées Densité optique (lymphocytes humains; 0,04 µg/ml): 0,775; Cellules non infectées Densité optique (lymphocytes humains; 0,12 µg/ml): 0,765; Cellules non infectées Densité optique (lymphocytes humains; 0,37 µg/ml): 0,853; Cellules non infectées Densité optique (lymphocytes humains; 10 µg/ml): 0,103; Cellules non infectées Densité optique (lymphocytes humains; 1,11 µg/ml): 0,835; Cellules non infectées Densité optique (lymphocytes humains; 3,33 µg/ml): 0,670
